The test system of one experiment is KKAY mice. Nature of the experiment: Hypoglycemic and hypolipidemic actions in mice (Test Example 1). Particulars: Mus musculus, po, 96 h, four days; for inhibition in vivo at 0.005 %: 0.005% in powdery diet; for inhibition in vivo at 0.01 %: 0.01% in powdery diet. Format: in vivo. The essentials:
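Compounds given in powdered diet at 0.01% or 0.005% ad libitum for four days to KKAY mice (11–12 weeks old, 5 per group). Plasma glucose and triglyceride measured enzymatically from orbital blood; values are percent reduction relative to untreated group taken as 100%.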

The next experiment concerns the target T1, PPARγ-RXRα heterodimer (Homo sapiens, UniProt P37231).
T1 construct: expressed in transfected cells; host or cells: CHO-K1
T1 sequence (P37231 1-477 isoform P37231-2): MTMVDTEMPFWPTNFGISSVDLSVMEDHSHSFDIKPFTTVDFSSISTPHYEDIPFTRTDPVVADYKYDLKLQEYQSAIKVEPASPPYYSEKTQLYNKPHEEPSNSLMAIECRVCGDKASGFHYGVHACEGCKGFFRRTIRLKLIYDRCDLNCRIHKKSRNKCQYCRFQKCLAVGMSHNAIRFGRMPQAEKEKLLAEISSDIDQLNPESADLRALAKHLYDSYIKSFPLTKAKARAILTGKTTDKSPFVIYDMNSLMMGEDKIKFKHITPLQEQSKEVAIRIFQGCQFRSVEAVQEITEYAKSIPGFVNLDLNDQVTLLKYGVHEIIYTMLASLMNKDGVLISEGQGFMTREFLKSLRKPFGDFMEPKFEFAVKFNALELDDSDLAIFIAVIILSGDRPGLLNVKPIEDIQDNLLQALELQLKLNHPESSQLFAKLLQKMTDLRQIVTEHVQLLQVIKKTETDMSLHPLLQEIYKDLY
T1 sequence (P19793 1-462 partner): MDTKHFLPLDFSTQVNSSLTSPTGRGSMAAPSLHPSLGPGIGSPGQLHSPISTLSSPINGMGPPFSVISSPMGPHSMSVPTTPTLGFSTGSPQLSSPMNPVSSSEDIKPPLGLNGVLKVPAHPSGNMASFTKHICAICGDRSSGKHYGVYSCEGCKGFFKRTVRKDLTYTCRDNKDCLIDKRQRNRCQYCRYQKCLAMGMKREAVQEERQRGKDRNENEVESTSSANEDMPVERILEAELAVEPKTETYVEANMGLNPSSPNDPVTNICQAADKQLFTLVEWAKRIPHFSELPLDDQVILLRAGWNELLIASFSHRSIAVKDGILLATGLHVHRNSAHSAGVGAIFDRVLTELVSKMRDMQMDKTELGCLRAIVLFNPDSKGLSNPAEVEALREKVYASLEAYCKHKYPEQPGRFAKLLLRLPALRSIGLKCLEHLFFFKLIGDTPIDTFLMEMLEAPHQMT
Put plainly: PPARγ-RXRα heterodimer ligand activity, luciferase reporter in PPARγ:RXRα:4ERPP/CHO-K1 cells (Test Example 3). It is filed as cell-based. The following applies: concentration for 50% of the maximum fold induction of luciferase activity; 48 hours, CHO-K1 cells. The essentials:
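CHO-K1 cells stably carrying hPPARγ/RXR expression plasmid and 4ERPP-TK luciferase reporter, treated 48 h at 37 °C in HAM F12 with 0.1% fatty-acid-free BSA. Luciferase fold induction taken over untreated cells; EC50 at 50% of maximal fold induction.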
On the technique in general: A reporter such as luciferase makes a cellular process visible.

The mark [1] stands for this setting: percent reduction of plasma glucose level vs non-administration group, read-out: hypoglycemic action (%).
Where [2] appears, read: percent reduction of plasma triglyceride level vs non-administration group, read-out: hypolipidemic action (%).

Molecules are shown by their SMILES. pEC50: −log10 of the molar value. Read-outs that look alike come from different tables or passages of the source.

Inhibition in vivo and EC50 data for 14 compounds are collected here from patent US7238716B2, “Alkanoic acid derivatives process for their production and use thereof” (Takeda Pharmaceuticals Company Limited, priority 2000, dated 2007).

As a reminder, the pEC50 is −log10 of the EC50, conventionally taken in molar units. On to `COc1cc(COc2ccccc2CC(=O)O)ccc1OCc1nc(-c2ccccc2)oc1C` [Example 48, 2-[2-[3-methoxy-4-[(2-phenyl-5-methyl-4-oxazolyl)methoxy]benzyloxy]phenyl]acetic acid], for which the values for the inhibition in vivo at 0.005 % in the experiment with KKAY mice (setting [1]) and with KKAY mice (setting [2]) were 53% and 50%, respectively. This compound also gave a pEC50 on PPARγ-RXRα heterodimer of 7.74.
For `Cc1oc(-c2ccccc2)nc1COc1ccc(COc2ncccc2CC(=O)O)cc1` [Example 36, 2-[2-[4-[(5-methyl-2-phenyl-4-oxazolyl)methoxy]benzyloxy]-3-pyridyl]acetic acid], in that order: 55%, 71% and 7.48.
As to `Cc1oc(-c2ccccc2)nc1COc1ccc(COc2ccc(Cl)cc2CC(=O)O)cc1` [Example 18, 2-[5-chloro-2-[4-[(5-methyl-2-phenyl-4-oxazolyl)methoxy]benzyloxy]phenyl]acetic acid], the results for the inhibition in vivo at 0.005 % in the experiment with KKAY mice (setting [1]) and in the experiment on KKAY mice (setting [2]) were 41% and 34%, respectively. In addition, the pEC50 at PPARγ-RXRα heterodimer is 5.54.
On the same counts, the results for `COc1cc(COc2ncccc2CC(=O)O)ccc1OCc1nc(-c2ccccc2)oc1C` [Example 91, 2-[2-[3-methoxy-4-[(2-phenyl-5-methyl-4-oxazolyl)methoxy]benzyloxy]-3-pyridyl]acetic acid] are 50%, 67% and 8.77.
For `Cc1oc(-c2ccccc2)nc1COc1cc(COc2cccc(CC(=O)O)c2)ccn1` [Example 62, 2-[3-[2-[(5-methyl-2-phenyl-4-oxazolyl)methoxy]-4-pyridylmethoxy]phenyl]acetic acid], in that order: 47%, 44% and 7.70.
As to `CCOc1ccc(OCc2ccc(OCc3nc(-c4ccccc4)oc3C)cc2)cc1CCC(=O)O` [Example 7, 3-[2-ethoxy-5-[4-[(5-methyl-2-phenyl-4-oxazolyl)methoxy]benzyloxy]phenyl]propionic acid], the inhibition in vivo at 0.01 % stood at 48% with KKAY mice (setting [1]) and 62% with KKAY mice (setting [2]). This compound also gave a pEC50 at PPARγ-RXRα heterodimer of 7.44.
Turning to `CCOc1ccc(OCc2ccc(OCc3nc(-c4ccccc4)oc3C)cc2)c(CC(=O)O)c1` [Example 26, 2-[5-ethoxy-2-[4-[(5-methyl-2-phenyl-4-oxazolyl)methoxy]benzyloxy]phenyl]acetic acid], the inhibition in vivo at 0.01 % in the experiment on KKAY mice (setting [1]) was found to be 53%; with KKAY mice (setting [2]) it was 88%. In addition, the pEC50 on PPARγ-RXRα heterodimer was 7.46.
`Cc1oc(-c2ccccc2)nc1CCOc1ccc(COc2ccccc2CC(=O)O)cc1` [Example 58, 2-[2-[4-[2-(5-methyl-2-phenyl-4-oxazolyl)ethoxy]benzyloxy]phenyl]acetic acid]: the inhibition in vivo at 0.005 % in the experiment with KKAY mice (setting [1]) turned out to be 57%; in the experiment with KKAY mice (setting [2]), 75%. On PPARγ-RXRα heterodimer, this compound showed a negative-log EC50 (pEC50) of 6.92.
With `Cc1oc(-c2ccccc2)nc1COc1cc(COc2ncccc2CC(=O)O)on1` [Example 129, 2-[2-[[3-[(5-methyl-2-phenyl-4-oxazolyl)methoxy]-5-isoxazolyl]methoxy]-3-pyridyl]acetic acid], the inhibition in vivo at 0.005 % in the experiment with KKAY mice (setting [1]) was determined as 45%; in the experiment with KKAY mice (setting [2]), 93%. At PPARγ-RXRα heterodimer, this compound showed a pEC50 of 7.23.
For `Cc1ccc(OCc2ccc(OCc3nc(-c4ccccc4)oc3C)cc2)c(CC(=O)O)c1` [Example 15, 2-[5-methyl-2-[4-[(5-methyl-2-phenyl-4-oxazolyl)methoxy]benzyloxy]phenyl]acetic acid], in that order: 49%, 60% and 6.70.
On the same counts, the results for `Cc1ccc(CC(=O)O)c(OCc2ccc(OCc3nc(-c4ccccc4)oc3C)cc2)n1` [Example 110, 2-[6-methyl-2-[4-[(5-methyl-2-phenyl-4-oxazolyl)methoxy]benzyloxy]-3-pyridyl]acetic acid] are 51%, 74% and 7.38.
On the same counts, the results for `Cc1oc(-c2ccccc2)nc1COc1ccc(COc2cccnc2CC(=O)O)cc1` [Example 37, 2-[3-[4-[(5-methyl-2-phenyl-4-oxazolyl)methoxy]benzyloxy]-2-pyridyl]acetic acid] are 50%, 61% and 6.21.
As to `Cc1oc(-c2ccccc2)nc1COc1ccc(COc2ccccc2CC(=O)O)cn1` [Example 41, 2-[2-[[6-[(5-methyl-2-phenyl-4-oxazolyl)methoxy]-3-pyridyl]methoxy]phenyl]acetic acid], the figures for the inhibition in vivo at 0.005 % in the experiment with KKAY mice (setting [1]) and in the experiment with KKAY mice (setting [2]) were 48% and 93%, respectively. The pEC50 on PPARγ-RXRα heterodimer is 7.82.
On the same counts, the results for `COc1ccc(OCc2ccc(OCc3nc(-c4ccccc4)oc3C)cc2)c(CC(=O)O)c1` [Example 24, 2-[5-methoxy-2-[4-[(5-methyl-2-phenyl-4-oxazolyl)methoxy]benzyloxy]phenyl]acetic acid] are 49%, 67% and 6.80.
